Experimental data as given in US10093678B2, “Azaspiro derivatives as TRPM8 antagonists” (RaQualia Pharma Inc., priority 2014, dated 2018).

Target: T1, human TRPM8 (Homo sapiens, UniProt Q7Z2W7)
T1 construct: expressed in transfected cells; host or cells: HEK293
Experiment: Menthol-induced Ca2+ influx in HEK293 cells stably expressing human TRPM8
Assay type: cell-based
Settings: 30 microM menthol-induced Ca2+ influx, read-out: IC50 against TRPM8
Method in brief: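 HEK293 cells stably expressing human TRPM8 were loaded with Fluo4-AM for 1 h at room temperature, preincubated 5 min with compound, then challenged with 30 microM menthol. Calcium rise was read by FDSS imaging. IC50 came from 11-point curves using duplicate-well means.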

T1 sequence (Q7Z2W7 whole entry): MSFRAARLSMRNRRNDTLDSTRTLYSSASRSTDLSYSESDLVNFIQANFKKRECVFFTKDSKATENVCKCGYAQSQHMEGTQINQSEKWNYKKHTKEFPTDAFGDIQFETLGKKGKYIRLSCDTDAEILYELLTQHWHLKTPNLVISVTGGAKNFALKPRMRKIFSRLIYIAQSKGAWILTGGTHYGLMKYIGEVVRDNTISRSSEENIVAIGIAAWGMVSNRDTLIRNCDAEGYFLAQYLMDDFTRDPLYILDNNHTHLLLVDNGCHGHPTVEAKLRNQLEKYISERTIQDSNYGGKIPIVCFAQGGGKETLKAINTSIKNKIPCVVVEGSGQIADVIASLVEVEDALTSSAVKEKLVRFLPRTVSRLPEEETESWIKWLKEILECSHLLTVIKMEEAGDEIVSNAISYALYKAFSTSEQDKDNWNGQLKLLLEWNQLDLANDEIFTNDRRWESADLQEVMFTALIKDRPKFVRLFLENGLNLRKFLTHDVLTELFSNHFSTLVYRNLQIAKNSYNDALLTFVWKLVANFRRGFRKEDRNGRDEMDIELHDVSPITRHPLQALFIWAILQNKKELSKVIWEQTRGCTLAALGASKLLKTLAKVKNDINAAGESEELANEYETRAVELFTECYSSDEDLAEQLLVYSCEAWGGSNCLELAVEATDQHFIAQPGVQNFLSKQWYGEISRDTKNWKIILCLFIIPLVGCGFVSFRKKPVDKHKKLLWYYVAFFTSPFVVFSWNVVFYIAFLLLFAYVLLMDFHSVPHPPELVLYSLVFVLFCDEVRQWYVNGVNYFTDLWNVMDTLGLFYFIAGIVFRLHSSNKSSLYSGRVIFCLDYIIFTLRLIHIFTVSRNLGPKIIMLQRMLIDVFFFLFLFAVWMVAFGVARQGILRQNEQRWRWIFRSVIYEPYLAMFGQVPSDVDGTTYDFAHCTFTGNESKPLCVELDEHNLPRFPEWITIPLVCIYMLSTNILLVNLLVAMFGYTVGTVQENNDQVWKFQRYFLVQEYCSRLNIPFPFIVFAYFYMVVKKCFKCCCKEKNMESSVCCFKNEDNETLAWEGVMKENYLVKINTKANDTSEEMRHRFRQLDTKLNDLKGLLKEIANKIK

SMILES	IC50 [nM]
COc1ccccc1-c1ccc(C(=O)CN2C(=O)NC3(CCCCC3)C2=O)cn1 [Example 9-3]	< 10
O=C(CN1C(=O)NC2(CCCCC2)C1=O)c1ccc(-c2ccccc2F)nc1 [Example 9-4]	< 100
O=C(CN1C(=O)NC2(CCCCC2)C1=O)c1ccc(-c2ccccc2CO)nc1 [Example 9-5]	< 100
O=C(CN1C(=O)NC2(CCCCC2)C1=O)c1ccc(-c2ccccc2C(F)(F)F)nc1 [Example 9-6]	< 100
Cc1ncccc1-c1ccc(C(=O)CN2C(=O)NC3(CCCCC3)C2=O)cn1 [Example 9-7]	< 100
N#Cc1ccccc1-c1ccc(C(=O)CN2C(=O)NC3(CCCCC3)C2=O)cn1 [Example 9-8]	< 100
N#Cc1cccc(-c2ccc(C(=O)CN3C(=O)NC4(CCCCC4)C3=O)cn2)c1 [Example 9-9]	< 100
O=C(CN1C(=O)NC2(CCC(F)(F)CC2)C1=O)c1ccc(-c2cccc3[nH]ccc23)nc1 [Example 9-10]	< 10
Cc1ccccc1-c1ccc(C(=O)CN2C(=O)NC3(CCC(F)(F)CC3)C2=O)cn1 [Example 9-11]	< 10
O=C(CN1C(=O)NC2(CCC(F)(F)CC2)C1=O)c1ccc(-c2cccc3ccncc23)nc1 [Example 9-12]	< 10
O=C(CN1C(=O)NC2(CCC(F)(F)CC2)C1=O)c1ccc(-c2cccc3cccnc23)nc1 [Example 9-13]	< 100
O=C(CN1C(=O)NC2(CCC(F)(F)CC2)C1=O)c1ccc(-c2cccc3[nH]ncc23)nc1 [Example 9-14]	< 100
Cc1ncccc1-c1ccc(C(=O)CN2C(=O)NC3(CCC(F)(F)CC3)C2=O)cn1 [Example 9-15]	< 100
O=C(CN1C(=O)NC2(CCC(F)(F)CC2)C1=O)c1ccc(-c2cncc3ccccc23)nc1 [Example 9-16]	< 100
O=C(CN1C(=O)NC2(CCC(F)(F)CC2)C1=O)c1ccc(-c2ccccc2CO)nc1 [Example 9-17]	< 100
O=C(CN1C(=O)NC2(CCC(F)(F)CC2)C1=O)c1ccc(-c2ccnc3ccccc23)nc1 [Example 9-18]	< 100
O=C1Cc2c(cccc2-c2ccc(C(=O)CN3C(=O)NC4(CCC(F)(F)CC4)C3=O)cn2)N1 [Example 9-19]	< 100
CCc1ccccc1-c1ccc(C(=O)CN2C(=O)NC3(CCC(F)(F)CC3)C2=O)cn1 [Example 9-20]	< 100
O=C(CN1C(=O)NC2(CCC(F)(F)CC2)C1=O)c1ccc(-c2cccc3cnccc23)nc1 [Example 9-21]	< 100
O=C(CN1C(=O)NC2(CCC(F)(F)CC2)C1=O)c1ccc(-c2ccnc3[nH]ccc23)nc1 [Example 9-22]	< 100
O=C(CN1C(=O)NC2(CCC(F)(F)CC2)C1=O)c1ccc(-c2cncc3[nH]ccc23)nc1 [Example 9-23]	< 100
O=C(CN1C(=O)NC2(CCC(F)(F)CC2)C1=O)c1ccc(-c2cnccc2CO)nc1 [Example 9-24]	< 100
O=C(CN1C(=O)NC2(CCC(F)(F)CC2)C1=O)c1ccc(-c2cccnc2CO)nc1 [Example 9-25]	< 100
O=C(CN1C(=O)NC2(CCC(F)(F)CC2)C1=O)c1ccc(-c2ccnc3[nH]ncc23)nc1 [Example 9-26]	< 500
O=C(CN1C(=O)NC2(CCC(F)(F)CC2)C1=O)c1ccc(-c2cncc3[nH]ncc23)nc1 [Example 9-27]	< 500
Cc1ncccc1-c1ccc(C(=O)CN2C(=O)NC3(CCC(F)(F)CC3)C2=O)nc1 [Example 10-1]	< 100

SMILES	IC50 [nM]
Cc1ccccc1-c1ccc(C(=O)CN2C(=O)NC3(CCC(F)(F)CC3)C2=O)nc1 [Example 10-2]	< 100
Cc1cc(C(=O)CN2C(=O)NC3(CCCCC3)C2=O)cnc1-c1ccccc1C#N [Example 11-1]	< 100
Cc1cc(C(=O)CN2C(=O)NC3(CCCCC3)C2=O)cnc1-c1ccccc1 [Example 11-2]	< 100
Cc1ncccc1-c1cnc(C(=O)CN2C(=O)NC3(CCC(F)(F)CC3)C2=O)cn1 [Example 12-1]	< 10
Cc1ccccc1-c1cnc(C(=O)CN2C(=O)NC3(CCC(F)(F)CC3)C2=O)cn1 [Example 12-2]	< 100
O=C(CN1C(=O)NC2(CCC(F)(F)CC2)C1=O)c1cnc(-c2ccccc2CO)cn1 [Example 12-3]	< 100
COc1ncccc1-c1cnc(C(=O)CN2C(=O)NC3(CCC(F)(F)CC3)C2=O)cn1 [Example 12-4]	< 100
COc1ccncc1-c1cnc(C(=O)CN2C(=O)NC3(CCC(F)(F)CC3)C2=O)cn1 [Example 12-5]	< 100
O=C(CN1C(=O)NC2(CCC(F)(F)CC2)C1=O)c1cnc(-c2cccc3cccnc23)cn1 [Example 12-6]	< 100
Cc1ccccc1-c1ccc(C(=O)CN2C(=O)NC3(CCC(F)(F)CC3)C2=O)nn1 [Example 12-7]	< 500
O=C(CN1C(=O)NC2(CCCCC2)C1=O)c1ccc(-c2ccccc2CO)cc1 [Example 13-1]	< 100
O=C(CN1C(=O)NC2(CCCCC2)C1=O)c1ccc(-c2cccnc2)cc1 [Example 13-2]	< 100
COc1ccccc1-c1ccc(C(=O)CN2C(=O)NC3(CCCCC3)C2=O)cc1 [Example 13-3]	< 100
Cc1ccccc1-c1ccc(C(=O)CN2C(=O)NC3(CCCCC3)C2=O)cc1 [Example 13-4]	< 100
Cc1cc(C(=O)CN2C(=O)NC3(CCCCC3)C2=O)ccc1-c1ccccc1 [Example 13-5]	< 100
Cc1ccccc1-c1ccc(C(=O)CN2C(=O)NC3(CCCCC3)C2=O)cc1C [Example 13-6]	< 100
Cc1cc(C(=O)CN2C(=O)NC3(CCC(F)(F)CC3)C2=O)ccc1-c1cccnc1 [Example 13-7]	< 100
Cc1cc(C(=O)CN2C(=O)NC3(CCC(F)(F)CC3)C2=O)ccc1-c1cncc(F)c1 [Example 13-8]	< 100
Cc1cc(C(=O)CN2C(=O)NC3(CCC(F)(F)CC3)C2=O)ccc1-c1ccccc1C#N [Example 13-9]	< 100
Cc1cc(C(=O)CN2C(=O)NC3(CCC(F)(F)CC3)C2=O)ccc1-c1cccc2c1CNC2=O [Example 13-10]	< 100
Cc1cc(C(=O)CN2C(=O)NC3(CCC(F)(F)CC3)C2=O)ccc1-c1cccc(C#N)c1 [Example 13-11]	< 100
Cc1cc(C(=O)CN2C(=O)NC3(CCC(F)(F)CC3)C2=O)ccc1-c1cccc(C(N)=O)c1 [Example 13-13]	< 100
Cc1cc(C(=O)CN2C(=O)NC3(CCC(F)(F)CC3)C2=O)ccc1-c1ccccc1 [Example 13-14]	< 100
Cc1cc(C(=O)CN2C(=O)NC3(CCC(F)(F)CC3)C2=O)ccc1-c1cccc2ccncc12 [Example 13-15]	< 100
Cc1cc(C(=O)CN2C(=O)NC3(CCC(F)(F)CC3)C2=O)ccc1-c1cc(F)cc(F)c1 [Example 13-16]	< 100
Cc1cc(C(=O)CN2C(=O)NC3(CCC(F)(F)CC3)C2=O)ccc1-c1cccc(F)c1 [Example 13-17]	< 100

SMILES	IC50 [nM]
O=C(CN1C(=O)NC2(CCCCC2)C1=O)c1ccc(-c2cccnc2)cc1F [Example 13-18]	< 100
N#Cc1cccc(-c2ccc(C(=O)CN3C(=O)NC4(CCCCC4)C3=O)c(F)c2)c1 [Example 13-19]	< 100
O=C(CN1C(=O)NC2(CCCCC2)C1=O)c1ccc(-c2ccccc2)cc1F [Example 13-20]	< 100
O=C(CN1C(=O)NC2(CCC(F)(F)CC2)C1=O)c1ccc(-c2cccc3cccnc23)c(F)c1 [Example 13-21]	< 100
O=C(CN1C(=O)NC2(CCC(F)(F)CC2)C1=O)c1ccc(-c2cccc3cnccc23)c(F)c1 [Example 13-22]	< 100
Cc1ccncc1-c1ccc(C(=O)CN2C(=O)NC3(CCC(F)(F)CC3)C2=O)cc1Cl [Example 13-23]	< 100
O=C(CN1C(=O)NC2(CCC(F)(F)CC2)C1=O)c1ccc(-c2cccnc2)c(Cl)c1 [Example 13-24]	< 100
N#Cc1ccccc1-c1ccc(C(=O)CN2C(=O)NC3(CCC(F)(F)CC3)C2=O)cc1Cl [Example 13-25]	< 100
O=C(CN1C(=O)NC2(CCC(F)(F)CC2)C1=O)c1ccc(-c2cncc(F)c2)c(Cl)c1 [Example 13-26]	< 100
O=C(CN1C(=O)NC2(CCC(F)(F)CC2)C1=O)c1ccc(-c2ccccc2CO)c(Cl)c1 [Example 13-27]	< 100
NC(=O)c1cccc(-c2ccc(C(=O)CN3C(=O)NC4(CCC(F)(F)CC4)C3=O)cc2Cl)c1 [Example 13-28]	< 100
O=C(CN1C(=O)NC2(CCC(F)(F)CC2)C1=O)c1ccc(-c2cccc3ccncc23)c(Cl)c1 [Example 13-29]	< 100
Cc1ccncc1-c1c(F)cc(C(=O)CN2C(=O)NC3(CCC(F)(F)CC3)C2=O)cc1F [Example 13-30]	< 100
N#Cc1ccccc1-c1c(F)cc(C(=O)CN2C(=O)NC3(CCC(F)(F)CC3)C2=O)cc1F [Example 13-31]	< 100
O=C(CN1C(=O)NC2(CCC(F)(F)CC2)C1=O)c1cc(F)c(-c2ccccc2CO)c(F)c1 [Example 13-32]	< 100
N#Cc1cccc(-c2c(F)cc(C(=O)CN3C(=O)NC4(CCC(F)(F)CC4)C3=O)cc2F)c1 [Example 13-33]	< 500
O=C(CN1C(=O)NC2(CCC(F)(F)CC2)C1=O)c1ccc(-c2ccccc2CO)cc1 [Example 13-34]	< 10
Cc1ccncc1-c1ccc(C(=O)CN2C(=O)NC3(CCC(F)(F)CC3)C2=O)cc1 [Example 13-35]	< 10
O=C(CN1C(=O)NC2(CCC(F)(F)CC2)C1=O)c1ccc(-c2cccc3ccncc23)cc1 [Example 13-36]	< 10
O=C(CN1C(=O)NC2(CCC(F)(F)CC2)C1=O)c1ccc(-c2cncc3ccccc23)cc1 [Example 13-37]	< 10
COc1ccncc1-c1ccc(C(=O)CN2C(=O)NC3(CCC(F)(F)CC3)C2=O)cc1 [Example 13-39]	< 100
O=C(CN1C(=O)NC2(CCC(F)(F)CC2)C1=O)c1ccc(-c2cccc3[nH]ncc23)cc1 [Example 13-40]	< 100
O=C(CN1C(=O)NC2(CCC(F)(F)CC2)C1=O)c1ccc(-c2cccc3cnccc23)cc1 [Example 13-41]	< 100
O=C(CN1C(=O)NC2(CCC(F)(F)CC2)C1=O)c1ccc(-c2cccc3[nH]ccc23)cc1 [Example 13-42]	< 100
